Experimental data from US7264969B1, “Carrier system for specific artery wall gene delivery” (University of Utah Research Foundation, priority 2000, dated 2007).
Where no end group is shown, it is not given here.

Tests used:
DNase I = assay: DNase protection assay; conditions: 37° C.; charge ratio 2/1 (+/−); 10 times excess of DNase I; FIG. 3B
Protocol: AWBP-PEG-g-PLL/pDNA complexes were prepared at the charge ratios of 2/1 (+/−) and incubated in the presence of 10 times excess of DNase I. At 0, 5, 10, 15, 20, 60, and 120 minutes after incubation, 50 μl of the sample was transferred into another tube and mixed with 100 μl of stop solution (400 mM NaCl and 100 mM EDTA) using mild agitation with a vortexer. The sample was then mixed with 12 μl of 10% (w/v) sodium dodecyl sulfate (SDS) and incubated at 65° C. overnight. DNA was extracted with the mixture of Tris-EDTA saturated phenol:chloroform:isoamyl alcohol (25:24:1, v/v). The extracted DNA was precipitated with 700 μl of absolute ethanol at 12,000 rpm for 30 minutes and washed with 70% ethanol. The DNA precipitate was air-dried and then dissolved in 10 μl TE buffer. The plasmid integrity was assessed by electrophoresis in a 1% agarose gel.

[1] = test system: bovine aorta endothelial cells; assay: Transfection assay (luciferase gene expression); assay type: cell-based
Protocol: (§1) Gene expression. (Transfection assay) Primary bovine aorta endothelial cells and smooth muscle cells were prepared, cultured, characterized, and identified as described in L. Yu et al., supra. Bovine aorta endothelial cells (5×10^5/well) and smooth muscle cells (2×10^5/well) were seeded in 24-well plates with 1 ml Dulbecco's modified Eagle medium (DMEM, Hyclone Laboratories, Logan, Utah) containing 10% fetal bovine serum (FBS, Hyclone Laboratories) and incubated for 24 hours to 70-80% confluency. The AWBP-PEG-g-PLL/pCMV-Luc complexes were freshly prepared in PBS for the transfection with fixed amount of plasmid DNA (2 μg/well) and various amounts of AWBP-PEG-g-PLL. After incubation of complexes for 30 minutes at room temperature, 100 μl of complex solution was added to the cells and then incubated for 3 hours at 37° C. in 5% CO2 atmosphere. After replacement of media, the cells were incubated for 40 hours under the same conditions. The cells were washed three times with PBS buffer and made ready for the reporter gene expression assay.
(§2) (Gene expression assay) Transgene expression was evaluated by luciferase activity of cell lysates from transfected bovine aorta endothelial cells and smooth muscle cells. Measurement of luciferase activity was performed according to the manufacturer's instruction (Luciferase Assay System, Promega, Madison, Wis.). Briefly, the transfected cells were lysed with 1× lysis buffer (1% Triton X-100), 100 mM KPO4, 2 mM dithiothreitol, 10% glycerol, and 2 mM EDTA, pH 7.8) for 15 minutes at room temperature. To measure the luciferase activity, 20 μl aliquot of cell lysate was mixed with 50 μl of luciferase assay reagent at room temperature and inserted in the luminometer. Light emission was measured in triplicate over 10 s and expressed as relative light units (RLUs). RLUs were normalized from the protein content of each sample, which was determined by BCA protein assay.

[2] = test system: bovine aorta smooth muscle cells; assay: Transfection assay (luciferase gene expression); assay type: cell-based
Protocol: as §1, §2

[3] = test system: bovine aorta endothelial cells; assay: Transfection inhibition assay with free AWBP; assay type: cell-based; conditions: free AWBP 31.25 μM to 500 μM
Protocol: (§3) (Transfectioninhibition assay). Bovine aorta endothelial cells (5×10^5/well) and smooth muscle cells (2×10^5/well) were seeded in 24-well plates 1 day prior to transfection with 70 to 80% confluence. The AWBP-PEG-g-PLL/pCMV-Luc complexes were freshly prepared in PBS buffer for the transfection with a fixed amount of plasmid DNA (2 μg/well) and AWBP-PEG-g-PLL (4 μg/well). After addition of various amounts of free artery wall binding peptide (range from 31.3 μM to 1.0 mM) for 20 minutes at 4° C., 100 μl AWBP-PEG-g-PLL/pCMV-Luc solution was added to the cells. All the other conditions were the same as described above for the transfection assay.
as §2, with “To measure the luciferase activity, 20 μl aliquot of cell lysate was mixed with 50 μl of luciferase assay reagent at room temperature and inserted in the luminometer.” left out

[4] = test system: bovine aorta smooth muscle cells; assay: Transfection inhibition assay with free AWBP; assay type: cell-based; conditions: free AWBP 31.25 μM to 500 μM
Protocol: as §3
as §2, with “To measure the luciferase activity, 20 μl aliquot of cell lysate was mixed with 50 μl of luciferase assay reagent at room temperature and inserted in the luminometer.” left out

| Substance | time for which pDNA is protected from digestion with DNase (DNase I) | luciferase activity of cell lysate ([1]; ratio carrier to plasmid DNA from 1.5:1 to 2:1, FIG. 6A) | luciferase activity of cell lysate ([1]; ratio carrier to plasmid DNA from 2:1 to 5:1, FIG. 6A) | luciferase activity of cell lysate ([2]; ratio carrier to plasmid DNA from 1.5:1 to 2:1, FIG. 6B) | luciferase activity of cell lysate ([2]; ratio carrier to plasmid DNA from 2:1 to 5:1, FIG. 6B) | effect of free AWBP on gene transfer by AWBP-PEG-g-PLL/pDNA complexes [3] | effect of free AWBP on gene transfer by AWBP-PEG-g-PLL/pDNA complexes [4] |
| --- | --- | --- | --- | --- | --- | --- | --- |
| AWBP-PEG-g-PLL: artery wall binding peptide (SEQ ID NO:2) conjugated to poly(ethylene glycol)-grafted-poly(L-lysine), about 4 mol AWBP per mole (CGRALVDTLKFVTQAEGAK; also: conjugated to PEG-grafted poly(L-lysine), about 4 mol peptide per mole, site not given here; listed as Homo sapiens) | at least 2 hours | significantly increased | remained constant | significantly increased | remained constant | – | – |
| AWBP: synthetic peptide based on arterial binding domain of apo B-100 (residues 1000-1016) with cysteine added to amino-terminus (CGRALVDTLKFVTQAEGAK; listed as Homo sapiens) | – | – | – | – | – | significantly inhibit | significantly inhibit |
